target: human KDR protein in HEK-293 cells (Homo sapiens (Human), UniProt P35968); test: KDR Cell Assay (phospho-KDR in HEK-293 cells expressing inducible KDR); type: cell-based; conditions: pKDR Cell HEK 10% FBS IC50, HEK-293 cells expressing inducible KDR, VEGF stimulated
Procedure, shortened: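 HEK-293 cells with inducible human KDR were treated with compound for 1 h in DMEM (0.25% DMSO final), then lysed. Phospho-KDR was quantified by Meso Scale immunoassay, expressed as percent of control, and IC50 taken where a 4-parameter logistic fit crossed 50 POC.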

human KDR protein in HEK-293 cells, sequence (P35968 20-1356): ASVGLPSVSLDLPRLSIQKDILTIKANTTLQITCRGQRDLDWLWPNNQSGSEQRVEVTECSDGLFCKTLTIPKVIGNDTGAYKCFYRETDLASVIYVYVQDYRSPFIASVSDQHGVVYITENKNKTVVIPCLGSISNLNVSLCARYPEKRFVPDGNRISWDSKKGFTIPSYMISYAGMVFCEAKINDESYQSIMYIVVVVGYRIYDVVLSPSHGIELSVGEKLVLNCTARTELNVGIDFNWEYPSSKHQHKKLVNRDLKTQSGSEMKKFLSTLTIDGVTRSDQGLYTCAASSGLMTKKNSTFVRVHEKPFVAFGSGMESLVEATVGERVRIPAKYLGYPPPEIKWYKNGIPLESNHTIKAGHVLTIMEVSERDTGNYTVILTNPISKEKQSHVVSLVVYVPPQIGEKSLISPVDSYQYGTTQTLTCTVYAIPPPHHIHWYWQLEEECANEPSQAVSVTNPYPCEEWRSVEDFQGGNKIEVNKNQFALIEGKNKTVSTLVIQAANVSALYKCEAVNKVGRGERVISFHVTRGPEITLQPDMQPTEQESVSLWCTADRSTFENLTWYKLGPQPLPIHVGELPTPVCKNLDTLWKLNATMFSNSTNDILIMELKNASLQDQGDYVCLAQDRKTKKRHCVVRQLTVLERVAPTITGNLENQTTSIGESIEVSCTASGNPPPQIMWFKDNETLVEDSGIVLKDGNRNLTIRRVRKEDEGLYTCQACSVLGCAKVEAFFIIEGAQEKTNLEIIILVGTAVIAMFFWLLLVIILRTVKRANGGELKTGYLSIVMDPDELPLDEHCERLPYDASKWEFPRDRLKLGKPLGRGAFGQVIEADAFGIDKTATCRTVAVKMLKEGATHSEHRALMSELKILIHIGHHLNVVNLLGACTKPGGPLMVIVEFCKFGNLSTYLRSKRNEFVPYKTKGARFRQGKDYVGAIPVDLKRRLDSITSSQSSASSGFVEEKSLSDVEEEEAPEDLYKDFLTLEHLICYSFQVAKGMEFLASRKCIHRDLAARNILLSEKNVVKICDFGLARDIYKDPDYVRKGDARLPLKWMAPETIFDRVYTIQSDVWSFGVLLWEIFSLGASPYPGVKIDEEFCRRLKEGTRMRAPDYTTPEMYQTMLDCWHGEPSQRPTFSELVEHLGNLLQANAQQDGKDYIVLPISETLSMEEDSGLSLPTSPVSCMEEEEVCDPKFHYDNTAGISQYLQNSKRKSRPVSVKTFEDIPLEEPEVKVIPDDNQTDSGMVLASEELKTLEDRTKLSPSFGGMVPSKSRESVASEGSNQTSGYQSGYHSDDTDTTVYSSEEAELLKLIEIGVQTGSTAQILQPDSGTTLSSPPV

IC50 [nM]	SMILES
1840	CCc1cnn2cc(-c3cnn(C)c3)cc(-c3ccc(N4CCN(C(=O)[C@H](O)c5ccccc5)CC4)nc3)c12 [Example 658, (R)-1-(4-(5-(3-ethyl-6-(1-methyl-1H-pyrazol-4-yl)pyrazolo[1,5-a]pyridin-4-yl)pyridin-2-yl)piperazin-1-yl)-2-hydroxy-2-phenylethanone]
1700	Cc1cnn2cc(-c3cnn(C)c3)cc(-c3ccc(N4CCN(C(=O)[C@H](O)c5ccccc5)CC4)nc3)c12 [Example 652, (R)-2-hydroxy-1-(4-(5-(3-methyl-6-(1-methyl-1H-pyrazol-4-yl)pyrazolo[1,5-a]pyridin-4-yl)pyridin-2-yl)piperazin-1-yl)-2-phenyl ethan-1-one]
≥ 5000	Cc1cc(-c2cc(-c3ccc(N4CCN(Cc5ccccc5)CC4)nc3)c3c(C#N)cnn3c2)on1 [Example 629, 4-(6-(4-benzylpiperazin-1-yl)pyridine-3-yl)-6-(3-methylisoxazol-5-yl)pyrazolo[1,5-a]pyridine-3-carbonitrile]
1670	CCN1CCN(c2ccc(-c3cc(-c4cnn(C)c4)cn4ncc(C#N)c34)cn2)CC1 [Example 409, 4-(6-(4-ethylpiperazin-1-yl)pyridin-3-yl)-6-(1-methyl-1H-pyrazol-4-yl)pyrazolo[1,5-a]pyridine-3-carbonitrile]
1720	Cn1cc(CN2CCN(c3ccc(-c4cc(-c5cnn(C)c5)cn5ncc(C#N)c45)cn3)CC2)cn1 [Example 448, 6-(1-methyl-1H-pyrazol-4-yl)-4-(6-(4-((1-methyl-1H-pyrazol-4-yl)methyl)piperazin-1-yl)pyridin-3-yl)pyrazolo[1,5-a]pyridine-3-carbonitrile]
653	Cc1ccnc(CN2CCN(c3ccc(-c4cc(-c5cnn(C)c5)cn5ncc(C#N)c45)cn3)CC2)c1 [Example 443, 6-(1-methyl-1H-pyrazol-4-yl)-4-(6-(4-((4-methylpyridin-2-yl)methyl)piperazin-1-yl)pyridine-3-yl)pyrazolo[1,5-a]pyridine-3-carbonitrile]
263	COc1ccc(CN2CCN(c3ccc(-c4cc(-c5cnn(C)c5)cn5ncc(C#N)c45)cn3)CC2)cc1 [Example 432, 4-(6-(4-(4-methoxybenzyl)piperazin-1-yl)pyridin-3-yl)-6-(1-methyl-1H-pyrazol-4-yl)pyrazolo[1,5-a]pyridine-3-carbonitrile]
1660	CC(C)n1cc(CN2CCN(c3ccc(-c4cc(-c5cnn(C)c5)cn5ncc(C#N)c45)cn3)CC2)cn1 [Example 445, 4-(6-(4-((1-isopropyl-1H-pyrazol-4-yl)methyl)piperazin-1-yl)pyridin-3-yl)-6-(1-methyl-1H-pyrazol-4-yl)pyrazolo[1,5-a]pyridine-3-carbonitrile]
880	Cn1cc(-c2cc(-c3ccc(N4CCN(Cc5cccc(F)c5)CC4)nc3)c3c(C#N)cnn3c2)cn1 [Example 428, 4-(6-(4-(3-fluorobenzyl)piperazin-1-yl)pyridin-3-yl)-6-(1-methyl-1H-pyrazol-4-yl)pyrazolo[1,5-a]pyridine-3-carbonitrile]
195	Cn1cc(-c2cc(-c3ccc(N4CCC(C(=O)NOCC5CC5)CC4)nc3)c3c(C#N)cnn3c2)cn1 [Example 563, 1-(5-(3-cyano-6-(1-methyl-1H-pyrazol-4-yl)pyrazolo[1,5-a]pyridin-4-yl)pyridin-2-yl)-N-(cyclopropylmethoxy)piperidine-4-carboxamide]
811	Cn1cc(-c2cc(-c3ccc(N4CCN(C(=O)N5CCN6CCCC6C5)CC4)nc3)c3c(C#N)cnn3c2)cn1 (stereo not shown) [Example 381, 6-(1-methyl-1H-pyrazol-4-yl)-4-(6-(4-(octahydropyrrolo[1,2-a]pyrazine-2-carbonyl)piperazin-1-yl)pyridin-3-yl)pyrazolo[1,5-a]pyridine-3-carbonitrile]
1030	CN1CCC2(CCCN(c3ccc(-c4cc(-c5cnn(C)c5)cn5ncc(C#N)c45)cn3)C2)CC1 [Example 555, 6-(1-methyl-1H-pyrazol-4-yl)-4-(6-(9-methyl-2,9-diazaspiro[5.5]undecan-2-yl)pyridin-3-yl)pyrazolo[1,5-a]pyridine-3-carbonitrile]
986	Cn1cc(-c2cc(-c3ccc(N4CCN(C(=O)N5CCC(C(F)(F)F)C5)CC4)nc3)c3c(C#N)cnn3c2)cn1 (stereo not shown) [Example 391, 6-(1-methyl-1H-pyrazol-4-yl)-4-(6-(4-(3-(trifluoromethyl)pyrrolidine-1-carbonyl)piperazin-1-yl)pyridin-3-yl)pyrazolo[1,5-a]pyridine-3-carbonitrile]

The remaining lines, values behind:

SMILES	IC50 [nM]
Cn1cc(-c2cc(-c3ccc(N4CCC(c5ccccc5)C4)nc3)c3c(C#N)cnn3c2)cn1 (stereo not shown) [Example 533, 6-(1-methyl-1H-pyrazol-4-yl)-4-(6-(3-phenylpyrrolidin-1-yl)pyridin-3-yl)pyrazolo[1,5-a]pyridine-3-carbonitrile 2,2,2-trifluoroacetate]	4860
CN(C(=O)N1CCN(c2ccc(-c3cc(-c4cnn(C)c4)cn4ncc(C#N)c34)cn2)CC1)C1CC1 [Example 386, 4-(5-(3-cyano-6-(1-methyl-1H-pyrazol-4-yl)pyrazolo[1,5-a]pyridine-4-yl)pyridin-2-yl)-N-cyclopropyl-N-methylpiperazine-1-carboxamide 2,2,2-trifluoroacetate]	1410
Cn1cc(-c2cc(-c3ccc(N4CCC(c5ccc(Cl)cc5)CC4)nc3)c3c(C#N)cnn3c2)cn1 [Example 534, 4-(6-(4-(4-chlorophenyl)piperidin-1-yl)pyridin-3-yl)-6-(1-methyl-1H-pyrazol-4-yl)pyrazolo[1,5-a]pyridine-3-carbonitrile 2,2,2-trifluoroacetate]	12.5

same assay, conditions: pKDR Cell HEK 10% FBS IC50, HEK-293 cells expressing inducible KDR, VEGF stimulated, 10% FBS

IC50 [nM]	SMILES
712	Cn1cc(-c2cc(-c3ccc(N4CCN(CCc5ccc(Cl)cc5)CC4)nc3)c3c(C#N)cnn3c2)cn1 [Example 140, 4-(6-(4-(4-chlorophenethyl)piperazin-1-yl)pyridin-3-yl)-6-(1-methyl-1H-pyrazol-4-yl)pyrazolo[1,5-a]pyridine-3-carbonitrile]
428	CO[C@@H](C(=O)N1CCN(c2ccc(-c3cc(-c4cnn(C)c4)cn4ncc(C#N)c34)cn2)CC1)C(C)C [Example 86, (R)-4-(6-(4-(2-methoxy-3-methylbutanoyl)piperazin-1-yl)pyridin-3-yl)-6-(1-methyl-1H-pyrazol-4-yl)pyrazolo[1,5-a]pyridine-3-carbonitrile]
3440	Cn1cc(-c2cc(-c3ccc(N4CCN(C(=O)OC(C)(C)C)CC4)cc3)c3c(C#N)cnn3c2)cn1 [Example 290, tert-Butyl 4-(4-(3-cyano-6-(1-methyl-1H-pyrazol-4-yl)pyrazolo[1,5-a]pyridin-4-yl)phenyl)piperazine-1-carboxylate]
1300	Cn1cc(-c2cc(-c3ccc(N4CCN(C(=O)CC5CCOC5)CC4)nc3)c3c(C#N)cnn3c2)cn1 (stereo not shown) [Example 62, 6-(1-methyl-1H-pyrazol-4-yl)-4-(6-(4-(2-(tetrahydrofuran-3-yl)acetyl)piperazin-1-yl)pyridin-3-yl)pyrazolo[1,5-a]pyridine-3-carbonitrile]
868	Cn1cc(-c2cc(-c3ccc(N4CCN(C(=O)N5CCC(F)(F)C5)CC4)nc3)c3c(C#N)cnn3c2)cn1 [Example 101, 4-(6-(4-(3,3-difluoropyrrolidine-1-carbonyl)piperazin-1-yl)pyridin-3-yl)-6-(1-methyl-1H-pyrazol-4-yl)pyrazolo[1,5-a]pyridine-3-carbonitrile]
151	CNS(=O)(=O)N1CCN(c2ccc(-c3cc(-c4cnn(C)c4)cn4ncc(C#N)c34)cc2)CC1 [Example 299, 4-(4-(3-cyano-6-(1-methyl-1H-pyrazol-4-yl)pyrazolo[1,5-a]pyridin-4-yl)phenyl)-N-methylpiperazine-1-sulfonamide]
≥ 5000	Cn1cc(-c2cc(-c3ccc(N4CCN(C(=O)C(O)c5ccc(F)cc5F)CC4)nc3)c3ccnn3c2)cn1 (stereo not shown) [Example 317, 2-(2,4-difluorophenyl)-2-hydroxy-1-(4-(5-(6-(1-methyl-1H-pyrazol-4-yl)pyrazolo[1,5-a]pyridin-4-yl)pyridin-2-yl)piperazin-1-yl)ethanone]
305	Cn1cc(-c2cc(-c3ccc(N4CCN(C(=O)C5(c6ccc(F)cc6)CC5)CC4)nc3)c3c(C#N)cnn3c2)cn1 [Example 345, 4-(6-(4-(1-(4-fluorophenyl)cyclopropanecarbonyl)piperazin-1-yl)pyridin-3-yl)-6-(1-methyl-1H-pyrazol-4-yl)pyrazolo[1,5-a]pyridine-3-carbonitrile]
21.8	Cn1cc(-c2cc(-c3ccc(N4CCC(N5CCOC5=O)CC4)nc3)c3c(C#N)cnn3c2)cn1 [Example 191, 6-(1-methyl-1H-pyrazol-4-yl)-4-(6-(4-(2-oxooxazolidin-3-yl)piperidin-1-yl)pyridin-3-yl)pyrazolo[1,5-a]pyridine-3-carbonitrile]

SMILES	IC50 [nM]
Cn1cc(-c2cc(-c3ccc(N4CCN(C(=O)CN5CCOCC5)CC4)nc3)c3c(C#N)cnn3c2)cn1 [Example 362, 6-(1-methyl-1H-pyrazol-4-yl)-4-(6-(4-(2-morpholinoacetyl)piperazin-1-yl)pyridin-3-yl)pyrazolo[1,5-a]pyridine-3-carbonitrile bis(2,2,2-trifluoroacetate)]	1860
Cn1cc(-c2cc(-c3ccc(N4CCN(C(=O)C(c5ccccc5)N5CCCCC5)CC4)nc3)c3c(C#N)cnn3c2)cn1 (stereo not shown) [Example 368, 6-(1-methyl-1H-pyrazol-4-yl)-4-(6-(4-(2-phenyl-2-(piperidin-1-yl)acetyl)piperazin-1-yl)pyridin-3-yl)pyrazolo[1,5-a]pyridine-3-carbonitrile bis(2,2,2-trifluoroacetate)]	1850
Cn1cc(-c2cc(-c3ccc(N4CCN(C(=O)c5ccccc5N5CCOCC5)CC4)nc3)c3c(C#N)cnn3c2)cn1 [Example 358, 6-(1-methyl-1H-pyrazol-4-yl)-4-(6-(4-(2-morpholinobenzoyl)piperazin-1-yl)pyridin-3-yl)pyrazolo[1,5-a]pyridine-3-carbonitrile bis(2,2,2-trifluoroacetate)]	161

Source: US10023570B2 (Array BioPharma, Inc., priority 2015, dated 2018)
